According to patent US11708318B2, “Polymorphic forms of RAD1901-2HCL” (Radius Pharmaceuticals, Inc., priority 2017, dated 2023):

How the values were obtained:
[1] = Solubility assessment of Sample 1 (majorly Form 1) in 24 solvent systems; assay type: physicochemical
[2] = Gravimetric Vapour Sorption (GVS), with XRPD of the recovered sample; assay type: physicochemical
Description: Sorption isotherms were obtained using a SMS DVS Intrinsic moisture sorption analyzer, controlled by DVS Intrinsic Control software v1.0.1.2 (or v 1.0.1.3). The sample temperature was maintained at 25° C. by the instrument controls. The humidity was controlled by mixing streams of dry and wet nitrogen, with a total flow rate of 200 ml/min. The relative humidity was measured by a calibrated Rotronic probe (dynamic range of 1.0-100% RH), located near the sample. The weight change, (mass relaxation) of the sample as a function of % RH was constantly monitored by the microbalance (accuracy ±0.005 mg).
A sample (e.g., 20 mg) was placed in a tared mesh stainless steel basket under ambient conditions. The sample was loaded and unloaded at 40% RH and 25° C. (typical room conditions). A moisture sorption isotherm was performed as outlined below (2 scans giving 1 complete cycle). Standard isotherms were performed at 25° C. at 10% RH intervals over a 0-90% RH range. Data analysis was carried out using Microsoft Excel using DVS Analysis Suite v6.2 (or 6.1 or 6.0).
In a cycle of 2 scans, the first scan was performed with adsorption of 40-90% RH, followed by a second scan with desorption of 90-0% RH and adsorption of 0-40% RH, with intervals of 10% RH, at 25° C. with stability dm/dt of 0.002% ° C./min. The sorption time was 6 hr time out.
The sample was recovered after completion of the isotherm and re-analyzed by XRPD. Custom moisture sorption methods were also performed at 25° C. at fixed % RH intervals over a 0-95% RH range, with the purpose to fully understand the sorption/desorption behavior of the compound under elevated conditions.
To further explore the humidity behavior of Sample 1 (Form 1) upon exposure to high RH (>90%), custom GVS experiments were designed and carried out. Initially, the sample was treated by holding at 90 and then 95% RH for ˜12 hours to see if hydrate formation could be observed (HighRH method of Steps 1 and 2 of Table 2, FIGS. 6C-6D).
To test the stability of the hydrated state, GVS method HighRH_Desorp_3 was designed with a desorption step and subsequent adsorption (see Table 2 with steps 1-4, FIGS. 6E-6F).
Finally, to ensure complete conversion to the anhydrous and hydrated forms, a GVS experiment was designed to increase both the length of the desorption step at 0% RH, and the adsorption step at 95% RH, respectively (Table 3). Based on the weight stabilization observed in the kinetic plots for Sample 1 in HighRH and HighRH_Desorp_3 methods discussed above (FIGS. 6D and 6F), a holding time of 800 mins at 0% RH and 1600 mins at 95% RH were chosen. A double cycle was also recorded for this experiment to observe whether the sample would return to Form 1 or form a mixed anhydrous/hydrated species (see Table 3, FIGS. 6G-6H).

SMILES: CCNCCc1ccc(CN(CC)c2cc(OC)ccc2[C@@H]2CCc3cc(O)ccc3C2)cc1.Cl.Cl [Sample 1]
- Solubility in alcohols, esters, and hydrocarbon solvents ([1]; alcohols, esters, hydrocarbon solvents): low solubility
- Solubility in t-butanol/water (1:1) ([1]; t-butanol/water (1:1)): high solubility
- GVS uptake 0-90% RH ([2]; 25° C., 0-90% RH): 1.8% wt.
- GVS uptake when held at 95% RH ([2]; HighRH method, held at 95% RH for ~12 hours): 5-6 % wt.
- Solid form on exposure to high RH (>90%) by GVS ([2]; above 90% RH): irreversibly converted to a hydrate (Form 3)
- XRPD post GVS (HighRH_DoubleCycle_2 method) ([2]; double cycle, 1600 mins at 95% RH, 800 mins at 0% RH): formation of the hydrate (Form 3)
- XRPD post GVS (HighRH method) ([2]; held at 90 and then 95% RH for ~12 hours): mixture of states or incomplete conversion
- XRPD post GVS (HighRH_Desorp_3 method) ([2]; single cycle: to 95% RH, desorption to 0% RH, adsorption 0-40% RH): mixture of Form 1 and Form 3
